For the experiment, the system named is CEM cells HIV-1 protection, formazan growth assay. Kind of experiment: NCI AIDS Antiviral Assay. The note with it: for IC50: measured here: growth of uninfected CEM cells. The procedure: The ability of compounds to protect human CEM cells from HIV-1 infection is measured as a screen for new compounds capable of inhibiting the HIV virus. Five concentrations of drug were tested on uninfected and infected cells and cell growth was measured using a soluble formazan assay. […] Compounds that provided at least 50% protection were retested. Compounds that provided at least 50% protection on retest were listed as moderately active. Compounds that reproducibly provided 100% protection were listed as confirmed active. […] Note that the inability to provide protection could be due to toxicity.

Molecules are shown by their SMILES. The source made the active and inactive calls.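 How the source made its calls: active means compounds giving half or more protection of infected cells from virus-caused growth loss, again on retest; inactive means the rest.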 Where a SMILES comes first, the peptide text is derived from it. Bridges are numbered along the chain shown (N, C = ends). Roman numbers before positions name the chains, in order.

As usually defined, the EC50 is the midpoint of the concentration-response curve. By IC50 is commonly meant the concentration that gives 50% inhibition. Read a low IC50 as inhibition by little substance. On to `COc1cc(-c2cc(=O)c3cc(Cl)cc(Cl)c3o2)cc(OC)c1OC`, for which the EC50 is above 100 µM and the IC50 was above 100 µM.

Consider `CN(C)c1ccc(-c2c(C#N)c(S)n(NS(=O)(=O)c3ccccc3)c(=O)c2C#N)cc1`, for which the EC50 is above 200 µM and the concentration for half-maximal inhibition (IC50) was 8.32 µM. In the same order, the values of `CCC[n+]1noc(N)n1` are above 1510 µM and above 1510 µM.

In the case of `c1ccc2oc(NCCSSCCNc3nc4ccccc4o3)nc2c1`, the EC50 is above 200 µM and the half-inhibitory concentration (IC50) was found to be 10.5 µM. In the same order, the values of `O=C1O/C(=C(\Br)c2ccccc2)c2ccccc21` are above 200 µM and 3.63 µM. Regarding `C/C(CC(=O)Nc1cccc(Cl)c1C)=N\N=C(N)N`, the EC50 is above 91.2 µM and the IC50 was above 91.2 µM. As for `Nc1ccccc1C(=O)N=Nc1c(O)[nH]c2ccccc12`, the EC50 is above 200 µM and the IC50 is above 200 µM. In the case of `COC(=O)c1cc(C(CCl)c2cc(C(=O)OC)c(OC)c(Br)c2C)c(C)c(Br)c1OC`, the EC50 was above 200 µM and the half-inhibitory concentration (IC50) came out at 8.71 µM. In the same order, the values of `CCCCCCC/C=N/[N-]C(=O)c1ccncc1.CCCCCCC/C=N\[N-]C(=O)c1ccncc1.[Ni+2]` are above 100 µM and 64.6 µM. Turning to `CCOc1cc[n+](C(=C=[N-])C#N)cc1`, the result was inactive. In the case of `C[C@H](O)CCC(=O)c1ccoc1`, the EC50 is above 1480 µM and the IC50 is above 1480 µM. In the case of `C=CCONC(=O)c1ccc(Cl)cc1`, the EC50 was above 617 µM and the IC50 stood at 525 µM. The corresponding values for `COC(=O)CC(C(C(C)=O)C(=O)OCc1ccccc1)N1C(=O)OC(c2ccccc2)C1c1ccccc1` (stereo not given) are above 83.2 µM and above 83.2 µM. For the compound `Cc1ccc(C)c(NC(=O)/C(=N\NC(N)=S)C(C#N)c2ccccc2)c1` (stereo not given), the EC50 was above 19.5 µM and the 50% inhibitory concentration (IC50) was above 19.5 µM. Consider `COc1cc(/C=C2\C=Cc3ccccc32)cc(OC)c1OC`, for which the EC50 is above 24.5 µM and the IC50 was above 24.5 µM. On to `CCCOC(=O)C1OC12CCCCC2` (stereo not given), for which the EC50 was above 200 µM and the concentration for half-maximal inhibition (IC50) was above 200 µM.

As to `O=C(O)Cn1c[n+](NC(=O)Cc2ccccc2)cn1`, the EC50 was above 200 µM and the IC50 is above 200 µM. On to `C[N+](C)(C)C(CSSCC(C(=O)[O-])[N+](C)(C)C)C(=O)[O-]` (stereo not given), for which the EC50 is above 200 µM and the IC50 is above 200 µM.

As for `COCS(=O)(=O)c1ccccc1`, the EC50 is above 708 µM and the IC50 was above 708 µM. For the compound `COc1ccc(/C=C(\C#N)c2ccccc2)cc1`, the EC50 was above 8.51 µM and the IC50 stood at 6.31 µM. In the case of `COc1c2c(cc3c(CCc4ccccc4)cc(=O)oc13)CCC(C)(C)O2`, the EC50 was above 14.5 µM and the IC50 was above 14.5 µM.

Regarding `CC12CCC(C(=O)n3c1nc1ccccc13)C(C)(C)O2` (stereo not given), the EC50 was above 200 µM and the IC50 is above 200 µM.

With `CC(NC(=O)C(N)CC(=O)O)NC(=O)C1CCC1` (stereo not given), the EC50 was above 200 µM and the IC50 is above 200 µM. On to `COC(=O)c1csnn1`, for which the EC50 is above 1740 µM and the IC50 was above 1740 µM. As to `CCCCCC1=C(c2ccc(OC)c(S(=O)(=O)N(C)C)c2)c2cc(S(=O)(=O)N(C)C)c(OC)cc2S1(=O)=O`, the EC50 was above 32.4 µM and the IC50 is above 32.4 µM.

With `CC1(c2ccccc2)CCCC/C1=N/NC(N)=O` (stereo not given), the EC50 is 105 µM and the IC50 worked out at 129 µM. The corresponding values for `CCOC(=O)C(NC(=O)CC)(Nc1ccc(F)cc1F)C(F)(F)F` (stereo not given) are above 200 µM and above 200 µM. The corresponding values for `Cc1cc(Cl)ccc1NC(=O)C(=O)Cc1nc2ccc(C(=O)c3ccccc3)cc2[nH]c1=O` are above 77.6 µM and above 77.6 µM. Take `CC(=O)C(N)=Nc1ccccc1`: the EC50 was above 1550 µM and the IC50 was above 1550 µM. Consider `O=C(OC(CC[P+](c1ccccc1)(c1ccccc1)c1ccccc1)(C(=O)c1ccccc1)c1ccccc1)c1ccccc1` (stereo not given), for which the EC50 is above 200 µM and the concentration for half-maximal inhibition (IC50) was determined as 1.07 µM.

Regarding `NC(=O)NCCC[C@H](NC(=O)[C@H](CS)NC(=O)[C@@H](N)Cc1cnc[nH]1)C(=O)N[C@H](Cc1ccccc1)C(=O)N[C@@H](Cc1c[nH]c2ccccc12)C(=O)N[C@@H](Cc1c[nH]c2ccccc12)C(N)=O`, the EC50 is above 200 µM and the 50% inhibitory concentration (IC50) was above 200 µM.

Turning to `CC(C(=O)O)c1ccc2c(c1)[nH]c1ccc(Cl)cc12` (stereo not given), the EC50 was above 245 µM and the IC50 worked out at 141 µM. In the same order, the values of `NC(CSSCC(N)C(=O)NC(Cc1ccc(O)cc1)C(=O)O)C(=O)NC(Cc1ccc(O)cc1)C(=O)O` (stereo not drawn) (I: H-Cys-Tyr-OH / II: H-Cys-Tyr-OH; disulfide I:1-II:1; configuration not given here) are above 200 µM and above 200 µM. Consider `O=C(/C=C/c1ccc(O)c(O)c1)OCCCc1ccccc1`, for which the EC50 was above 200 µM and the IC50 stood at 5.01 µM. Take `CC1=C/C(=N\NC(N)=S)C(C(O)(C(F)(F)F)C(F)(F)F)C(C)(C)C1` (stereo not given): the EC50 was above 200 µM and the IC50 was determined as 89.1 µM.

As for `O=C1C=C(c2c(O)ccc3ccccc23)c2ccccc2C1=O`, the result was inactive. Take `COC(=O)c1c2c(cc3nc4ccccc4nc13)OCO2`: the EC50 is above 200 µM and the IC50 is above 200 µM.

For `O=[N+]([O-])c1cc2cnn(CO)c2cc1[N+](=O)[O-]`, the EC50 was above 200 µM and the IC50 was 16.6 µM. In the same order, the values of `CC(=O)NC1C(OCc2ccccc2)OC(COC(=O)CCCCCCCCCCNc2ccc([N+](=O)[O-])c3[nH]c4ccccc4c(=O)c23)C(O)C1OC(C)C(=O)NC(C)C(=O)NC(CCC(N)=O)C(=O)OCc1ccccc1` (stereo not given) are above 166 µM and above 166 µM. As to `O=C(NC1C2CC3CC(C2)CC1C3)c1ccncn1` (stereo not given), the EC50 was above 513 µM and the IC50 was above 513 µM. Consider `Cn1c(=O)oc2cc(C(O)CN3CCN(Cc4ccccn4)CC3)c(Cl)cc21` (stereo not given), for which the EC50 was above 200 µM and the IC50 amounted to 195 µM.

`CC1(C)CC[C@H](C2=CC(=O)c3c(O)ccc(O)c3C2=O)O1`: the EC50 is above 91.2 µM and the IC50 was 0.0955 µM. Regarding `CC(C)COC(=O)c1ccc(N)cc1`, the EC50 is above 200 µM and the IC50 was above 200 µM. Turning to `Cc1ccc(SSc2nnnn2C)cc1`, the EC50 is above 200 µM and the IC50 worked out at 11 µM. In the same order, the values of `O=c1oc2ccccc2[n+]([O-])c1-c1ccccc1` are above 1050 µM and above 1050 µM. The corresponding values for `COc1cc(OCc2ccc3nc(OC)c(OC)nc3c2)cc(OC)c1OC` are above 200 µM and above 200 µM. The corresponding values for `CC1=NS(=O)(=O)NC(C)=C1CC1=C(C)NS(=O)(=O)N=C1C` are above 269 µM and above 269 µM.

For the compound `NNC(=O)C(O)C(O)C(=O)NN` (stereo not given), the EC50 was above 1410 µM and the IC50 was found to be 631 µM. Compound `Nc1ccc([As](=O)(O)O)cc1C(=O)O` had an EC50 above 200 µM and an IC50 above 200 µM. As to `Cc1cccc(C)c1NC(=O)/C(=N/NC(N)=S)C(C)C(=O)c1ccc(Cl)cc1` (stereo not given), the EC50 is above 44.7 µM and the IC50 was above 44.7 µM. Consider `COc1nc(N)nc2c1n(C)c[n+]2C`, for which the EC50 is above 200 µM and the IC50 turned out to be 141 µM.

For the compound `CC1CC(=O)Nc2cc(C(F)(F)F)ccc2N1` (stereo not given), the EC50 was above 200 µM and the IC50 is above 200 µM. Consider `Nc1nc([O-])c([I+]c2ccccc2)c(=O)[nH]1`, for which the EC50 is above 200 µM and the IC50 was above 200 µM. Consider `CCOP(=O)(OCC)/C(=C\n1ccc(=O)[nH]c1=S)C(=O)OC`, for which the EC50 was above 200 µM and the IC50 is above 200 µM. Consider `S=C1N(c2ccc(Cl)cc2)C2=C(N=Nc3ccccc3)C(=Nc3ccccc3S2)N1c1ccccn1`, for which the EC50 was above 50.1 µM and the 50% inhibitory concentration (IC50) came out at 10 µM. The corresponding values for `C=CCO/N=C(\OC(=O)c1ccc([N+](=O)[O-])cc1)c1ccccc1` are above 151 µM and above 151 µM. The corresponding values for `CC1(C)CN(C(=O)OCc2ccccc2)[C@@H]2N1C(=O)[C@@]2(C)OCCCO[C@@]1(C)C(=O)N2[C@@H]1N(C(=O)OCc1ccccc1)CC2(C)C` are above 200 µM and 26.9 µM.

As for `N#Cc1ccc(C2NN=CC23C(=O)c2ccccc2OC3c2ccccc2)cc1` (stereo not given), the EC50 is above 200 µM and the IC50 came out at 64.6 µM.

Consider `COc1ccc(C2SCC(=O)N2c2ccc(-n3c(-c4ccccc4)nc4ccccc4c3=O)cc2)cc1` (stereo not given), for which the EC50 is above 200 µM and the IC50 is 158 µM.

Take `S=C(Nc1ccc(Br)cn1)NC12CC3CC(CC(C3)C1)C2`: the EC50 was above 200 µM and the IC50 stood at 69.2 µM.

As to `O=C(c1ccncc1)n1nc(-c2ccccc2)c(N=Nc2ccccc2[N+](=O)[O-])c1-c1ccccc1`, the EC50 is above 39.8 µM and the half-maximal inhibitory concentration (IC50) was above 39.8 µM.

As for `COc1ccc2c3ccc4c(c3n(C)c2c1)C(=O)c1ccccc1C4=O`, the EC50 is above 1.51 µM and the IC50 is above 1.51 µM. In the case of `O=C(O)c1cc(O)c2c(c1)C([C@@H]1c3cccc(O)c3C(=O)c3c(O)cc(C(=O)O)cc31)c1cccc(O)c1C2=O` (stereo not given in full), the EC50 is above 200 µM and the IC50 was found to be 31.6 µM. The corresponding values for `Cc1c(/C=N/NC(=S)Nc2cccc(Cl)c2)c(=O)n(-c2ccccc2)n1C` are above 200 µM and above 200 µM. In the same order, the values of `CCCN(CCC)C(=S)N/N=C(/C)c1ccccc1O` are above 200 µM and 15.8 µM. In the same order, the values of `CNC(=O)NC(CCCCNC(=O)OCc1ccccc1)C(=O)OCc1ccccc1` (stereo not given) are above 83.2 µM and 39.8 µM. Regarding `O=C(CCCN1CCC2(CC1)CC(c1ccccc1)OC2=O)c1ccc(F)cc1` (stereo not given), the EC50 is above 200 µM and the IC50 stood at 89.1 µM.

On to `CC(=O)OCC1OC(n2c(C#N)cc(=O)[nH]c2=O)CC1OC(C)=O` (stereo not given), for which the EC50 was above 200 µM and the IC50 turned out to be 57.5 µM. For `CCCNC(=O)C1C(=O)C(=O)N(CCC)C1=O` (stereo not given), the outcome was inactive.

These data come from PubChem BioAssay AID179 (DTP/NCI, 2004).
